# Reference: patent US9636311B2, “N,N′-di-1 naphthylguanidine HCl (NAGH) and N,N′-di-p-nitrophenylguanidine HCl (NAD) treatment for stroke at delayed timepoints” (University of South Florida, priority 2012, dated 2017)
# Read-outs that look alike come from different tables or passages of the source.
# Experiments:
# rats following MCAO [1] = assay: Spontaneous activity (automated activity monitor) after MCAO; assay type: in vivo, rat; details: 1 month post MCAO
# Protocol: MCAO surgeries were performed as described elsewhere (Vendrame M, Cassady C J, Newcomb J, Butler T, Pennypacker K R, Zigova T, et al. Stroke. 2004; 35:2390-2395). Briefly, rats were anesthetized with isoflurane, and the right common carotid and external carotid arteries were exposed using blunt dissection techniques. The vagus nerve was separated from common carotid artery and the external carotid artery was ligated proximally, and transected near the bifurcation. An embolus 40 mm in length (4.0 siliconized monofilament) was inserted into the external carotid artery and fed distally into the origin of the middle cerebral artery (˜25 mm from insertion) through the internal carotid artery. Blood samples were taken and analyzed using an i-STAT handheld analyzer for hemoglobin, hematocrit, ionized calcium, glucose, sodium, potassium, pH, pCO2, HCO3, TCO2, base excess, pO2, and O2. Cerebral blood flow was recorded using a Laser Doppler Monitor (Moor Instruments) to verify occlusion. Afterwards, the embolus was ligated permanently into the vessel and the neck incision was closed. Animals were treated with Ketoprofen IM (10 mg/kg) for three days post-surgery.
# For the NAGH studies, vehicle or NAGH were prepared fresh each day. Daily subcutaneous injections (s.c) were administered beginning about 24 hours after MCAO and continued daily to about 72 hours post-surgery (FIG. 1). Animals received a total of 3 injections. A total of 84 animals were randomly assigned into 2 groups: Rats treated with vehicle (40% DMSO in sterile saline, n=42), or rats treated with 0.86 mg/kg NAGH (n=42).
# For NAD testing, a total of 32 animals were randomly assigned into 2 groups: Vehicle (n=16), and rat treated with 2.8 mg/kg NAD (n=16). Vehicle consisted of 40% DMSO in sterile saline.
# Spontaneous Activity was measured during both the day (1 hr) and night (12 hrs) using an automated activity monitor (VersaMax, Accuscan Instruments, Inc). Spontaneous Activity was measured prior to stroke to establish the normal baseline for each individual animal as well as 1 month after the MCAO. The animals were placed in a Plexiglas box and allowed to roam freely. There is a three dimensional infrared array in this box and when a beam is broken, activity is recorded. A total of sixteen parameters were measured including: Vertical movement, Horizontal movement, and Stereotypic activity were selected for analysis: Horizontal activity (HA), Total distance travelled (TD), Number of movements (MVN), Movement time (MVT), Vertical activity (VA), Number of vertical movements (VMN), vertical time (VT), Stereotype counts (SC), Number of Stereotypy (SN), Stereotypy time (ST), Clockwise rotation (CR), counterclockwise rotation (CCR), Margin distance (MD), Marginal time (MT), Center distance (CD), and Center time (CT). The data are presented as mean+SEM of percent of baseline behavior.
# rats following MCAO [2] = assay: Battery of behavioral tests after MCAO (corner, grip, rotorod, step, cylinder); assay type: in vivo, rat; details: 30 days after MCAO
# Protocol: After surgery, animals were tested was performed once before surgery and 30 days post-surgery for motor coordination and behavior. All behavioral data are reported as mean+sem.
# Rotorod test, which measures motor coordination, was conducted using Omni-rotor Rotorod (Omnitech, Inc). Animals were trained on the accelerating rotorod apparatus for 3 consecutive days before times were collected. Animals were placed on the revolving rod and instrument was set to accelerate to a maximum speed of 40 rpm over 180 seconds. Latency to fall (in seconds) was recorded. This test was performed in triplicate once per day for 3 days.
# Rats were held tightly with one forelimb placed on a hard flat table top and then pulled for a length of 1 meter in the direction of the placed forelimb at constant velocity. The test was repeated with the opposite forelimb. This was repeated three times for each forelimb and the percent of contralateral forelimb paw was obtained. The bias was standardized as the absolute number of steps with the contralateral paw minus 100.
# The animals were placed in a transparent cylinder about 20 cm in diameter and 30 cm in height with an open top. The number times each paw was placed on the sides of the cylinder was counted a5 minute period. The test was videotaped and a mirror was placed behind the cylinder allowing the experimenter to see the placement of paws when the animal was facing away from the camera.
# A 30 degree angle was formed using the edges of two plexiglass boards. The animals were placed halfway into the corner facing the corner and the total number of left and right turns was recorded. A total of 10 trials were conducted and videotaped. A non-lesioned animal turned randomly toward the left or right, while a lesioned animal preferentially turned toward the non-impaired (left) side. Results were reported as the percentage of ipsilateral (injury site, right side) versus contralateral turns.
# Motor deficits were assessed using a grip strength meter (Bioseb, # BIO-GS3). […] Grip strength was recorded in Newtons (N). […]
# microglial cells = assay: Inhibition of microglial migration evoked by ATP; assay type: cell-based
# Protocol: (§1) FIG. 8 is a series of images confirming NAGH acts as a sigma receptor agonist. A) Concentration-response relationship for NAGH (closed circles) and DTG (open circles) inhibition of microglial migration evoked by 100 μM ATP. […] Points represent mean (±SEM) and for all points, n>9. B) Bar graph of the mean (±SEM) number of microglial cells migrating in response to 100 μM ATP when ATP was added alone (DMEM) or in the presence of 100 μM NAGH. Microglia were further exposed to no σ antagonist (Control), or the σ-1 antagonist, BD-1047 (10 μM, BD-1047), or the σ-2 antagonist, rimcazole (10 μM, Rimcazole). Asterisks denote significant difference between DMEM and NAGH within Control, BD-1047 and Rimcazole groups, respectively. Pound symbols indicate significant difference between Control, BD-1047 and Rimcazole within DMEM and NAGH groups, respectively. P<0.05 and n=24 for all groups.
# as §1, with “8A illustrates the concentration-response” for “8 is a series of images confirming NAGH acts as a sigma receptor agonist. A) Concentration-response”, “FIG. 8B depicts a bar” for “B) Bar”
# [3] = migration evoked by 100 μM ATP, two-component Langmuir-Hill fit
smiles,measurement,setting,value
"Cl.N=C(Nc1cccc2ccccc12)Nc1cccc2ccccc12 [NAGH, N,N′-di-1-Naphthylguanidine hydrochloride]",Daytime horizontal activities vs DMSO,rats following MCAO [1]; 1-hr test,no significant differences
same,Daytime vertical time (VT) vs DMSO,"rats following MCAO [1]; 1-hr test, p=0.01",significantly less active
same,Daytime vertical activity (VA) vs DMSO,"rats following MCAO [1]; 1-hr test, p=0.03",significantly less active
same,Daytime number of vertical movements (VMN) vs DMSO,"rats following MCAO [1]; 1-hr test, p=0.15",more active than DMSO group
same,"Daytime stereotypy activity (SC, SN, ST) decrease vs DMSO","rats following MCAO [1]; 1-hr test, p>0.05",failed to reach a statistically significant level
same,Nighttime horizontal parameters decrease vs DMSO,rats following MCAO [1]; 12-hr test,did not reach statistical significance
same,"Nighttime stereotypic behavior (SC, SN, ST) vs DMSO",rats following MCAO [1]; 12-hr test,did not show any significant difference
same,Nighttime vertical activity (VA) vs DMSO,"rats following MCAO [1]; 12-hr test, p=0.01",significantly less active
same,Nighttime number of vertical movements (VMN) vs DMSO,"rats following MCAO [1]; 12-hr test, p=0.015",significantly more active
same,Nighttime vertical time (VT) vs DMSO,"rats following MCAO [1]; 12-hr test, p=0.03",significantly less active
same,"Overall behavioral data vs vehicle, all tests except EBST",rats following MCAO [2]; NAGH 0.86 mg/kg s.c. x3,no significant differences
same,Changes in asymmetry on the cylinder test,rats following MCAO [2]; NAGH,failed to gain significance
same,Microglial migration,"microglial cells; 100 μM ATP, via σ-1 and σ-2 receptors",blocks microglial migration
same,"Emax, high affinity component",microglial cells; [3],0.43
same,"Emax, low affinity component",microglial cells; [3],0.57
same,"Hill coefficient, high affinity component",microglial cells; [3],2.2
same,"Hill coefficient, low affinity component",microglial cells; [3],0.80
same,IC50,"microglial cells; migration evoked by 100 μM ATP, two-component Langmuir-Hill fit, read-out: IC50, high affinity component",0.75 µM
same,IC50,"microglial cells; read-out: IC50, low affinity component",84 µM
